# pEC50: −log10 of the molar value.
# Assays:
# APJ = APJ (Homo sapiens (Human), UniProt P35414); assay: [35S]GTPγS binding assay on membranes from CHO cells stably expressing human APJ receptor; format: biochemical; settings: read-out: Activity hAPJ SPA EC50 IP
# Protocol: A GTPγS binding assay was performed on membranes prepared from CHO cells stably expressing human APJ receptor. The optimum experimental conditions for the concentrations of GDP, MgCl2, and NaCl in the assay buffer were initially determined. The assay was performed in assay buffer [20 mM HEPES, pH 7.5, 5 mM MgCl2, and 0.1% (w/v) BSA with 200 mM NaCl, 3 M GDP] and membranes expressing human APJ receptor/well along with WGA PS beads. The reaction was initiated by addition of 0.2 nM [^35S]GTPγS (Perkin Elmer Life and Analytical Sciences, Waltham USA) in the absence or presence of various ligands and incubated at RT for 90 min. Nonspecific binding was determined in the presence of 100 M GTPγS and was always less than 0.2% of total binding.
# [1] = tested on: naive Sprague Dawley rat hearts; settings: ex vivo isolated perfused rat heart, percent change over vehicle; for Isolated Heart Assay dP/dtmax(%): contractility; for Isolated Heart Assay dP/dtmin(%): relaxation (lusitropic)
# Sequence of APJ (P35414 whole entry, the tested form may be a part): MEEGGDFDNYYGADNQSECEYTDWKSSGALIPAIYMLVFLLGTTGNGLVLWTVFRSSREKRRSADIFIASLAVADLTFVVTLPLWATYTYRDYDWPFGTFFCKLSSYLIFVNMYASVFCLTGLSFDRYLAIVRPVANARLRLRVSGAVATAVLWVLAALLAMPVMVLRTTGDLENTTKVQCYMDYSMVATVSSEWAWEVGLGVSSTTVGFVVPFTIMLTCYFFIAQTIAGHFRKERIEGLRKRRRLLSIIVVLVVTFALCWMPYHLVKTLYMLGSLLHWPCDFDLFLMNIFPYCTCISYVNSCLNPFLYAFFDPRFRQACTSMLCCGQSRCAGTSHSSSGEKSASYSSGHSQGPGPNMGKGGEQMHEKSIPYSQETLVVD
SMILES,pEC50 (APJ),Isolated Heart Assay dP/dtmax(%) [1],Isolated Heart Assay dP/dtmin(%) [1]
"COc1cccc(OC)c1-n1c(NS(=O)(=O)[C@@H](C)Cc2ncc(F)cn2)nnc1-c1cncc(C)c1 (mixture of isomers) [Example 207.0, (S)-N-(4-(2,6-dimethoxyphenyl)-5-(5-methylpyridin-3-yl)-4H-1,2,4-triazol-3-yl)-1-(5-fluoropyrimidin-2-yl)propane-2-sulfonamide and (R)-N-(4-(2,6-dimethoxyphenyl)-5-(5-methylpyridin-3-yl)-4H-1,2,4-triazol-3-yl)-1-(5-fluoropyrimidin-2-yl)propane-2-sulfonamide]",8.48,–,–
"COc1cccc(OC)c1-n1c(NS(=O)(=O)[C@@H](C)Cc2ncc(F)cn2)nnc1-c1cnccc1C (mixture of isomers) [Example 216.0, (2S)-N-(4-(2,6-dimethoxyphenyl)-5-(4-methyl-3-pyridinyl)-4H-1,2,4-triazol-3-yl)-1-(5-fluoro-2-pyrimidinyl)-2-propanesulfonamide and (2R)-N-(4-(2,6-dimethoxyphenyl)-5-(4-methyl-3-pyridinyl)-4H-1,2,4-triazol-3-yl)-1-(5-fluoro-2-pyrimidinyl)-2-propanesulfonamide]",6.24,–,–
"COc1cccc(OC)c1-n1c(NS(=O)(=O)[C@@H](C)Cc2ncc(F)cn2)nnc1-c1cncc(Cl)c1 (mixture of isomers) [Example 219.0, (2S)-N-(5-(5-chloro-3-pyridinyl)-4-(2,6-dimethoxyphenyl)-4H-1,2,4-triazol-3-yl)-1-(5-fluoro-2-pyrimidinyl)-2-propanesulfonamide and (2R)-N-(5-(5-chloro-3-pyridinyl)-4-(2,6-dimethoxyphenyl)-4H-1,2,4-triazol-3-yl)-1-(5-fluoro-2-pyrimidinyl)-2-propanesulfonamide]",8.07,–,–
"COc1cccc(OC)c1-n1c(NS(=O)(=O)[C@@H](C)[C@H](OC)c2ncc(F)cn2)nnc1-c1cccnc1 [Example 81.0, (1R,2S)-N-(4-(2,6-dimethoxyphenyl)-5-(3-pyridinyl)-4H-1,2,4-triazol-3-yl)-1-(5-fluoro-2-pyrimidinyl)-1-methoxy-2-propanesulfonamide]",–,14.0%,15.0%
"COc1cccc(OC)c1-n1c(NS(=O)(=O)[C@@H](C)[C@H](O)c2ncc(F)cn2)nnc1-c1cccnc1 [Example 82.0, (1R,2S)-N-(4-(2,6-dimethoxyphenyl)-5-(3-pyridinyl)-4H-1,2,4-triazol-3-yl)-1-(5-fluoro-2-pyrimidinyl)-1-hydroxy-2-propanesulfonamide]",–,13.5%,16.2%
"CCO[C@H](c1ncc(C)cn1)[C@H](C)S(=O)(=O)Nc1nnc(-c2cncc(C)c2)n1-c1c(OC)cccc1OC [Example 252.0, (1R,2S)-N-(4-(2,6-dimethoxyphenyl)-5-(5-methylpyridin-3-yl)-4H-1,2,4-triazol-3-yl)-1-ethoxy-1-(5-methylpyrimidin-2-yl)propane-2-sulfonamide]",–,15.7%,16.3%
"CCO[C@H](c1ncc(Cl)cn1)[C@H](C)S(=O)(=O)Nc1nnc(-c2cccnc2)n1-c1c(OC)cccc1OC [Example 430.0, (1R,2S)-1-(5-chloropyrimidin-2-yl)-N-(4-(2,6-dimethoxyphenyl)-5-(pyridin-3-yl)-4H-1,2,4-triazol-3-yl)-1-ethoxypropane-2-sulfonamide]",–,10.0%,9.7%
"COc1cccc(OC)c1-n1c(NS(=O)(=O)[C@@H](C)[C@H](OC)c2ncc(Cl)cn2)nnc1-c1cccnc1 [Example 591.0, (1R,2S)-1-(5-chloro-2-pyrimidinyl)-N-(4-(2,6-dimethoxyphenyl)-5-(3-pyridinyl)-4H-1,2,4-triazol-3-yl)-1-methoxy-2-propanesulfonamide]",–,8.0%,0.0%
"CCO[C@H](c1ncc(Cl)cn1)[C@H](C)S(=O)(=O)Nc1nnc(-c2cncc(C)c2)n1-c1c(OC)cccc1OC [Example 610.0, (1R,2S)-1-(5-chloro-2-pyrimidinyl)-N-(4-(2,6-dimethoxyphenyl)-5-(5-methyl-3-pyridinyl)-4H-1,2,4-triazol-3-yl)-1-ethoxy-2-propanesulfonamide]",–,6.0%,No effect
"COc1cccc(OC)c1-n1c(NS(=O)(=O)[C@H](C)[C@@H](O)c2cnc(C)cn2)nnc1-c1cccnc1 [Example 614.0, (1S,2R)-N-(4-(2,6-dimethoxyphenyl)-5-(3-pyridinyl)-4H-1,2,4-triazol-3-yl)-1-hydroxy-1-(5-methyl-2-pyrazinyl)-2-propanesulfonamide]",–,6.6%,6.2%
"COc1cccc(OC)c1-n1c(NS(=O)(=O)CCc2ccc(F)cc2C#N)nnc1-c1cncc(C)c1 [Example 621.0, 2-(2-cyano-4-fluorophenyl)-N-(4-(2,6-dimethoxyphenyl)-5-(5-methyl-3-pyridinyl)-4H-1,2,4-triazol-3-yl)ethanesulfonamide]",–,7.4%,6.0%
"COc1ncnc(OC)c1-n1c(NS(=O)(=O)[C@@H](C)[C@H](C)c2ncc(Cl)cn2)nnc1-c1cccnc1 [Example 709.0, (2S,3R)-3-(5-chloro-2-pyrimidinyl)-N-(4-(4,6-dimethoxy-5-pyrimidinyl)-5-(3-pyridinyl)-4H-1,2,4-triazol-3-yl)-2-butanesulfonamide]",–,6.0%,3.0%
"COc1cccc(-c2nnc(NS(=O)(=O)[C@@H](C)[C@H](C)c3ncc(Cl)cn3)n2-c2c(OC)ncnc2OC)n1 [Example 710.0, (2S,3R)-3-(5-chloro-2-pyrimidinyl)-N-(4-(4,6-dimethoxy-5-pyrimidinyl)-5-(6-methoxy-2-pyridinyl)-4H-1,2,4-triazol-3-yl)-2-butanesulfonamide]",–,12.7%,10.3%
"COc1cccc(-c2nnc(NS(=O)(=O)[C@@H](C)[C@H](C)c3ncc(C)cn3)n2-c2c(F)cccc2F)n1 [Example 784.0, (2S,3R)-N-(4-(2,6-difluorophenyl)-5-(6-methoxy-2-pyridinyl)-4H-1,2,4-triazol-3-yl)-3-(5-methyl-2-pyrimidinyl)-2-butanesulfonamide]",–,4.3%,1.93%
"COc1cccc(-c2nnc(NS(=O)(=O)[C@@H](C)[C@H](C)c3cnc(C)cn3)n2-c2c(OC)ncnc2OC)n1 [Example 799.0, (2S,3R)-N-(4-(4,6-dimethoxy-5-pyrimidinyl)-5-(6-methoxy-2-pyridinyl)-4H-1,2,4-triazol-3-yl)-3-(5-methyl-2-pyrazinyl)-2-butanesulfonamide]",–,7.8%,14.1%
"COc1cnc([C@@H](C)[C@H](C)S(=O)(=O)Nc2nnc(-c3cccnc3)n2-c2c(OC)ncnc2OC)cn1 [Example 803.0, (2S,3R)-N-(4-(4,6-dimethoxy-5-pyrimidinyl)-5-(3-pyridinyl)-4H-1,2,4-triazol-3-yl)-3-(5-methoxy-2-pyrazinyl)-2-butanesulfonamide]",–,11.4%,10.0%
